The values below come from patent publication US20090036498A1, “FLY CONTROL METHOD” (priority 2007, published 2009).

Experiment [1] concerns Adult L. serricata (blowflies). The experiment can be described thus: Test A: adult blowflies on blood agar containing test compound, number of dead flies scored. The experiment is classed as in vivo, Lucilia sericata. The following applies: 4 flies in test; for Number dead flies at 2 hours: scored at 2 hours; for Number dead flies at 4 hours: scored at 4 hours; for Number dead flies at 24 hours: scored at 24 hours. As to the method:
Adult L. serricata (blowflies): Adult flies are placed on beds of blood agar (in individual test wells; 4 flies per well) in which test compound (3-bromo-1-(3-chloro-2-pyridinyl)-N-[4-cyano-2-methyl-6-[(methylamino)carbonyl]phenyl]-1H-pyrazole-5-carboxamide) was dissolved/suspended prior to hardening of agar. Flies can take up test compound by both ingestion and contact. Assays are scored by number of dead flies at 2 hours, 4 hours, and 24 hours.

Experiment [2] relates to Newly emerged larvae of blowfly, Lucilica sericata. As to the kind of experiment: Blowfly larvae on filter paper discs with test compound mixed in dried blood bovine serum, mortality. The experiment is classed as in vivo. Particulars: Lucilia sericata, assessed at 24 hours, four replicates per data point. As to the method: L. serricata (Insect; Blowfly) Larvae.
Test compound (3-bromo-1-(3-chloro-2-pyridinyl)-N-[4-cyano-2-methyl-6-[(methylamino)-carbonyl]phenyl]-1H-pyrazole-5-carboxamide) was mixed with dried blood bovine serum and placed on filter paper discs. Newly emerged larvae of blowfly, Lucilica sericata were added to the filter paper, which were ingested by larvae. Activity may occur through both feeding and contact. Four replicates were run per data point. Activity was assessed at 24 hours.

Turning to `CCOP(=S)(OCC)Oc1nc(Cl)c(Cl)cc1Cl` [Chloropyriphos], the “Number dead flies at 2 hours” value in experiment [1] (Rate 1 ppm in blood agar) was 0; in experiment [1] (Rate 10 ppm in blood agar), 1; in experiment [1] (Rate 25 ppm in blood agar), 3; in experiment [1] (Rate 50 ppm in blood agar), 4; in experiment [1] (Rate 100 ppm in blood agar) it was 4. Moreover, the “Number dead flies at 4 hours” value in experiment [1] (Rate 1 ppm in blood agar) is 1; in experiment [1] (Rate 10 ppm in blood agar), 4; in experiment [1] (Rate 25 ppm in blood agar) it was 4; in experiment [1] (Rate 50 ppm in blood agar) it was 4; in experiment [1] (Rate 100 ppm in blood agar), 4. Moreover, the “Number dead flies at 24 hours” value in experiment [1] (Rate 1 ppm in blood agar), in experiment [1] (Rate 10 ppm in blood agar), in experiment [1] (Rate 25 ppm in blood agar), in experiment [1] (Rate 50 ppm in blood agar) and in experiment [1] (Rate 100 ppm in blood agar) was 4 each time.

What is called mortality is the percentage killed. Take `CNC(=O)c1cc(C#N)cc(C)c1NC(=O)c1cc(Br)nn1-c1ncccc1Cl` [Test compound, 3-bromo-1-(3-chloro-2-pyridinyl)-N-[4-cyano-2-methyl-6-[(methylamino)-carbonyl]phenyl]-1H-pyrazole-5-carboxamide]: the “Number dead flies at 2 hours” value in experiment [1] (Rate 1 ppm in blood agar), in experiment [1] (Rate 10 ppm in blood agar), in experiment [1] (Rate 25 ppm in blood agar), in experiment [1] (Rate 50 ppm in blood agar) and in experiment [1] (Rate 100 ppm in blood agar) was 0 throughout. The “Number dead flies at 4 hours” value in experiment [1] (Rate 1 ppm in blood agar), in experiment [1] (Rate 10 ppm in blood agar), in experiment [1] (Rate 25 ppm in blood agar), in experiment [1] (Rate 50 ppm in blood agar) and in experiment [1] (Rate 100 ppm in blood agar) was 0 each time. For the same molecule, the “Number dead flies at 24 hours” value was 0 in experiment [1] (Rate 1 ppm in blood agar); 1 in experiment [1] (Rate 10 ppm in blood agar); 2 in experiment [1] (Rate 25 ppm in blood agar); 3 in experiment [1] (Rate 50 ppm in blood agar); 3 in experiment [1] (Rate 100 ppm in blood agar). This molecule also gave a mortality at 0.5 ppm in experiment [2] of 90 to 100%.

The molecule `N#Cc1nn(-c2c(Cl)cc(C(F)(F)F)cc2Cl)c(N)c1[S+]([O-])C(F)(F)F` (stereo not drawn) [Fipronil, (.+−.)-5-amino-1-(2,6-dichloro-α,α,α-triflu-oro-p-tolyl)-4-trifluoromethyl-sulphinylpyrazol-3-carbonitrile, reference compound] yielded a mortality at 0.5 ppm in experiment [2] of 90 to 100%.
